Source: patent US20010003848A1, “DNA SEQUENCES FOR AMMONIUM TRANSPORTER, PLASMIDS, BACTERIA, YEASTS, PLANT CELLS AND PLANTS CONTAINING THE TRANSPORTER” (priority 1993, published 2001)
Values joined by “and” are separate entries in the source; they are usually repeats but may differ in a detail not shown here. Identical values can stand only once. Like-named read-outs stand apart in the source and are kept apart here.

Experiments:
[1] = system: yeast line 26972c::pFL61-MEP-a; format: cell-based, Saccharomyces cerevisiae; conditions: 10 mM glucose; for Uptake of ^14C-methylamine in presence of carbonyl cyanide m-chlorophenylhydrazone: 26972c::pF161 MEP-a +CCCP 10 pM; for Uptake of ^14C-methylamine in presence of 0.1 mM dinitrophenol (DNP): 26972c::pFL61-MEP-a +DNP 0.1 mM; for Uptake of ^14C-methylamine: 26972c::pFL61-MEP-a, two independent series
Protocol: (§1) The yeast lines 26972c::pFL61, 26972c::pFL61-MEP-a and their starting lines S1278b (Dubois & Grenson, 1979, Mol Gen Genet 175: 67-76, MEP-1/MEP-2 ura3) were grown in liquid medium with 1.7 g yeast nitrogen base without ammonium and without amino acids (Difco), 20 g agarose, 1% glucose (w/v), 0.5 mg/l proline until the culture reached the logarithmic phase. After centrifuging of each 25 ml of the culture the cells were washed with 10 mM phosphate pH 7 or pH 4 and taken up in 1.5 ml 10 mM phosphate buffer. Ten minutes before starting the transport measurements, it was made up to an end concentration of 10 mM glucose. […] of the suspension was added to a solution of 10 mM phosphate pH 4 or 7, 100 μM unlabelled methylamine and 5 μCi ^14C-labelled methylamine (0.1 mCi/1.9 μmol) (end concentrations). The uptake of the methylamine was measured after 10, 60, 120 and 180 seconds. For this, to 50 μl of starting material was taken and in a volume of 1 ml H2O+3 mM unlabelled methylamine absorbed on a glass fibre filter. After washing with 10 ml H2O+3 mM unlabelled methylamine the amount of ^14C-labelled methylamine taken up was measured by scintillation (Table Ia and Ib).

yeast strain Σ1278b = experiment: Uptake of ^14C-methylamine in yeast strain Σ1278b; format: cell-based, Saccharomyces cerevisiae; conditions: 10 mM glucose; for Uptake of ^14C-methylamine in presence of carbonyl cyanide m-chlorophenylhydrazone (CCCP): Σ1278b +CCCP 10 pM; for Uptake of ^14C-methylamine in presence of 0.1 mM dinitrophenol (DNP): Σ1278b +DNP 0.1 mM
Protocol: as §1

Saccharomyces cerevisiae = conditions: cited from earlier work
[2] = system: yeast strain 26972c::pFL61; experiment: Uptake of ^14C-methylamine in yeast strain 26972c::pFL61 (zero control, plasmid without cDNA insertion); format: cell-based, Saccharomyces cerevisiae; conditions: 10 mM glucose
Protocol: as §1

N#CC(C#N)=NNc1cccc(Cl)c1 [CCCP, carbonyl cyanide m-chlorophenylhydrazone]
Uptake of ^14C-methylamine in presence of carbonyl cyanide m-chlorophenylhydrazone ([1]; pH = 7, 10 sec): 484.60 cpm | Uptake of ^14C-methylamine in presence of carbonyl cyanide m-chlorophenylhydrazone ([1]; pH = 7, 60 sec): 1407.00 cpm | Uptake of ^14C-methylamine in presence of carbonyl cyanide m-chlorophenylhydrazone ([1]; pH = 7, 120 sec): 2597.92 cpm | Uptake of ^14C-methylamine in presence of carbonyl cyanide m-chlorophenylhydrazone ([1]; pH = 7, 180 sec): 3620.36 cpm | Uptake of ^14C-methylamine in presence of carbonyl cyanide m-chlorophenylhydrazone (CCCP) (yeast strain Σ1278b; pH = 7, 10 sec): 173.20 cpm | Uptake of ^14C-methylamine in presence of carbonyl cyanide m-chlorophenylhydrazone (CCCP) (yeast strain Σ1278b; pH = 7, 60 sec): 316.80 cpm | Uptake of ^14C-methylamine in presence of carbonyl cyanide m-chlorophenylhydrazone (CCCP) (yeast strain Σ1278b; pH = 7, 120 sec): 460.40 cpm | Uptake of ^14C-methylamine in presence of carbonyl cyanide m-chlorophenylhydrazone (CCCP) (yeast strain Σ1278b; pH = 7, 180 sec): 608.00 cpm

O=[N+]([O-])c1ccc(O)c([N+](=O)[O-])c1 [DNP]
Uptake of ^14C-methylamine in presence of 0.1 mM dinitrophenol (DNP) ([1]; pH = 7, 10 sec): 378.00 cpm | Uptake of ^14C-methylamine in presence of 0.1 mM dinitrophenol (DNP) ([1]; pH = 7, 60 sec): 1349.40 cpm | Uptake of ^14C-methylamine in presence of 0.1 mM dinitrophenol (DNP) ([1]; pH = 7, 120 sec): 2794.44 cpm | Uptake of ^14C-methylamine in presence of 0.1 mM dinitrophenol (DNP) ([1]; pH = 7, 180 sec): 2794.44 cpm | Uptake of ^14C-methylamine in presence of 0.1 mM dinitrophenol (DNP) (yeast strain Σ1278b; pH = 7, 10 sec): 167.20 cpm | Uptake of ^14C-methylamine in presence of 0.1 mM dinitrophenol (DNP) (yeast strain Σ1278b; pH = 7, 60 sec): 386.00 cpm | Uptake of ^14C-methylamine in presence of 0.1 mM dinitrophenol (DNP) (yeast strain Σ1278b; pH = 7, 120 sec): 706.80 cpm | Uptake of ^14C-methylamine in presence of 0.1 mM dinitrophenol (DNP) (yeast strain Σ1278b; pH = 7, 180 sec): 906.00 cpm

Cl.N [NH4Cl]
inhibition of methylamine-uptake functions (Saccharomyces cerevisiae; both transport functions of Saccharomyces): inhibitable | Uptake of ^14C-methylamine in presence of 0.5 mM NH4Cl ([2]; 26972c::pFL61, pH = 7, 10 sec): 271.60 cpm | Uptake of ^14C-methylamine in presence of 0.5 mM NH4Cl ([2]; 26972c::pFL61, pH = 7, 60 sec): 795.80 cpm | Uptake of ^14C-methylamine in presence of 0.5 mM NH4Cl ([2]; 26972c::pFL61, pH = 7, 120 sec): 1388.20 cpm | Uptake of ^14C-methylamine in presence of 0.5 mM NH4Cl ([2]; 26972c::pFL61, pH = 7, 180 sec): 1773.00 cpm | Uptake of ^14C-methylamine in presence of 0.5 mM NH4Cl (yeast strain Σ1278b; 1278b, pH = 7, 10 sec): 356.60 cpm | Uptake of ^14C-methylamine in presence of 0.5 mM NH4Cl (yeast strain Σ1278b; 1278b, pH = 7, 60 sec): 885.60 cpm | Uptake of ^14C-methylamine in presence of 0.5 mM NH4Cl (yeast strain Σ1278b; 1278b, pH = 7, 120 sec): 1237.80 cpm | Uptake of ^14C-methylamine in presence of 0.5 mM NH4Cl (yeast strain Σ1278b; 1278b, pH = 7, 180 sec): 1597.40 cpm

CN [^14C-methylamine, methylamine]
maximum speed Vmax (Saccharomyces cerevisiae; high affinity transporter with low capacity): 20 nmol/min per mg cells (dry weight) | Km (Saccharomyces cerevisiae; high affinity transporter with low capacity, read-out: Km value): 250 µM | Vmax (Saccharomyces cerevisiae; low affinity system with high capacity): 50 nmol/min per mg cells | Km (Saccharomyces cerevisiae; low affinity system with high capacity, read-out: Km): 2000 µM | Vmax (Saccharomyces cerevisiae; low affinity system with medium capacity): 33 nmol/min per mg cells | Km (Saccharomyces cerevisiae; low affinity system with medium capacity, read-out: Km): 20000 µM | Uptake of ^14C-methylamine ([1]; pH = 4, 10 sec): 204.80 cpm and 214.80 cpm | Uptake of ^14C-methylamine ([1]; pH = 4, 60 sec): 283.80 cpm and 345.60 cpm | Uptake of ^14C-methylamine ([1]; pH = 4, 120 sec): 434.40 cpm and 594.60 cpm | Uptake of ^14C-methylamine ([1]; pH = 4, 180 sec): 479.60 cpm and 842.20 cpm | Uptake of ^14C-methylamine ([1]; pH = 7, 10 sec): 302.80 cpm and 352.20 cpm | Uptake of ^14C-methylamine ([1]; pH = 7, 60 sec): 1247.80 cpm and 1292.20 cpm | Uptake of ^14C-methylamine ([1]; pH = 7, 120 sec): 3152.50 cpm and 3478.28 cpm | Uptake of ^14C-methylamine ([1]; pH = 7, 180 sec): 8490.83 cpm and 6099.39 cpm | Uptake of ^14C-methylamine ([2]; 26972c::pFL61, pH = 4, 10 sec, two independent series): 220.20 cpm and 117.20 cpm | Uptake of ^14C-methylamine ([2]; 26972c::pFL61, pH = 4, 60 sec, two independent series): 200.60 cpm and 138.60 cpm | Uptake of ^14C-methylamine ([2]; 26972c::pFL61, pH = 4, 120 sec, two independent series): 284.80 cpm and 197.40 cpm | Uptake of ^14C-methylamine ([2]; 26972c::pFL61, pH = 4, 180 sec, two independent series): 317.60 cpm and 285.60 cpm | Uptake of ^14C-methylamine ([2]; 26972c::pFL61, pH = 7, 10 sec): 202.20 cpm | Uptake of ^14C-methylamine ([2]; 26972c::pFL61, pH = 7, 60 sec): 291.80 cpm | Uptake of ^14C-methylamine ([2]; 26972c::pFL61, pH = 7, 120 sec): 524.80 cpm | Uptake of ^14C-methylamine ([2]; 26972c::pFL61, pH = 7, 180 sec): 797.80 cpm | Uptake of ^14C-methylamine (yeast strain Σ1278b; 1278b, pH = 7, 10 sec): 469.60 cpm | Uptake of ^14C-methylamine (yeast strain Σ1278b; 1278b, pH = 7, 60 sec): 1022.80 cpm | Uptake of ^14C-methylamine (yeast strain Σ1278b; 1278b, pH = 7, 120 sec): 6176.36 cpm | Uptake of ^14C-methylamine (yeast strain Σ1278b; 1278b, pH = 7, 180 sec): 16826.67 cpm | Uptake of ^14C-methylamine (yeast strain Σ1278b; Σ1278b, pH = 4, 10 sec): 289.00 cpm | Uptake of ^14C-methylamine (yeast strain Σ1278b; Σ1278b, pH = 4, 60 sec): 1151.20 cpm | Uptake of ^14C-methylamine (yeast strain Σ1278b; Σ1278b, pH = 4, 120 sec): 19605.46 cpm | Uptake of ^14C-methylamine (yeast strain Σ1278b; Σ1278b, pH = 4, 180 sec): 32651.43 cpm
